The source of these data is patent publication US7176199B2, “Aryl-substituted alicyclic compound and medical composition comprising the same” (Dainippon Pharmaceutical Co., Ltd., priority 2001, dated 2007).

Assay [1] addresses T1, αIIbβ3 integrin (Homo sapiens, UniProt P05106+P08514).
T1 construct: from tissue; host or cells: human platelets (Triton X-100 lysate)
Briefly: Assay for the inhibition of αIIbβ3 integrin binding (fibrinogen as ligand, integrin captured from platelet lysate). The settings on record: inhibition of specific binding of biotinylated fibrinogen to αIIbβ3 integrin from human platelet lysate. As to the method: Experiment 2: Assay for the Inhibition of αIIbβ3 Integrin Binding
This experiment was carried out based on the method described in Thromb. Haemostasis, 75, 339 (1996), Blood, 93, 2559 (1999), using fibrinogen as a ligand. According to the method described in the above literatures, assay for the inhibition of αIIbβ3 integrin binding can be achieved by capturing αIIbβ3 integrin from platelet lysate with the use of an activated antibody against αIIbβ3 integrin.
Human platelets were isolated in a conventional manner. At 25° C., the isolated platelets were adjusted to a concentration of 1.25×10^9/ml with TBS+[50 mM Tris-HCl (pH 7.4), 150 mM NaCl, 2 mM CaCl2], and then ⅛ volume of TBS^+ containing 2 mM leupepsin and 10 mM PMSF was added and stirred gently. Nest, 1/9 volume of TBS+ containing 10% Triton X-100 was added and stirred gently. After standing on ice for 30 minutes, a platelet lysate was prepared from the mixture by discarding the insoluble fraction with centrifugation (10,000 g, 15 minutes).
Anti-mouse IgG goat antibody (Jackson Immunoresearch Laboratories, Inc., USA) was adjusted to a concentration of 5 μg/ml with sodium carbonate buffer (pH 9.6) and added to plates at 50 μl/well. The plate was left at 4° C. overnight for immobilization of the antibody. All subsequent steps were done at 25° C., and the procedure for each well was described hereafter.
The well was washed once with TBS^+, and then 200 μl of TBS^+ containing 5% BSA was added to the well and left for one hour for blocking. The well was washed with a reaction solution (TBS^+ containing 0.1% BSA and 0.05% Triton X-100) 4 times, and then 50 μl of anti-human αIIbβ3 integrin activated monoclonal antibody (TAKARA SHUZO CO., LTD, Japan, PT25-2 strain) adjusted to 5 μg/ml with the reaction solution was added to the well. After one hour reaction, the well was washed 4 times with the reaction solution, and 50 μl of the platelet lysate diluted 1:2 with the reaction solution was added to the well. Following 2 hours reaction, the well was washed 4 times with the reaction solution, and 50 μl of the reaction solution was added to the well. Subsequently, 25 μl of a test compound solution adjusted to each concentration with the reaction solution was added, and then mixed with 25 μl of biotinylated fibrinogen (Calbiochem, Germany) adjusted to 2 μg/ml with the reaction solution. The mixture was reacted for one hour. After washing 4 times with the reaction solution, 100 μl of alkaline phosphatase-labeled streptoavidin (Gibco BRL, USA) diluted 1:500 with the reaction solution was added to the well. Following 30 minutes reaction, the well was washed 4 times with the wash solution. Next, 50 μl of the NaDPH solution (Invitrogen, former company name: Gibco BRL, USA) was added and reacted for 20 minutes, and then 50 μl of an amplification solution containing diaphorase and alcohol dehydrogenase (Invitrogen, former company name: Gibco BRL, USA) was added. Color was developed for 20 minutes and the reaction was stopped by adding 50 μl of 0.5 M sulfuric acid.
The absorbance at 495 nm was measured with a plate reader to obtain a total binding. To obtain a nonspecific binding, EDTA adjusted to 20 mM with the reaction solution was added instead of the test compound solution. A specific binding was calculated by subtracting the nonspecific binding from the total binding.

Assay [2] deals with αvβ3 integrin (Homo sapiens, UniProt P05106+P06756). Briefly: Assay for the inhibition of αvβ3 integrin binding (vitronectin as ligand). Set-up: purchased Chemicon International, Inc., USA. As to conditions: inhibition of specific binding of biotinylated human vitronectin to immobilized αvβ3 integrin. The method, then: Experiment 1: Assay for the Inhibition of αvβ3 integrin binding
Sequence of αvβ3 integrin (P06756 31-889 limits assumed): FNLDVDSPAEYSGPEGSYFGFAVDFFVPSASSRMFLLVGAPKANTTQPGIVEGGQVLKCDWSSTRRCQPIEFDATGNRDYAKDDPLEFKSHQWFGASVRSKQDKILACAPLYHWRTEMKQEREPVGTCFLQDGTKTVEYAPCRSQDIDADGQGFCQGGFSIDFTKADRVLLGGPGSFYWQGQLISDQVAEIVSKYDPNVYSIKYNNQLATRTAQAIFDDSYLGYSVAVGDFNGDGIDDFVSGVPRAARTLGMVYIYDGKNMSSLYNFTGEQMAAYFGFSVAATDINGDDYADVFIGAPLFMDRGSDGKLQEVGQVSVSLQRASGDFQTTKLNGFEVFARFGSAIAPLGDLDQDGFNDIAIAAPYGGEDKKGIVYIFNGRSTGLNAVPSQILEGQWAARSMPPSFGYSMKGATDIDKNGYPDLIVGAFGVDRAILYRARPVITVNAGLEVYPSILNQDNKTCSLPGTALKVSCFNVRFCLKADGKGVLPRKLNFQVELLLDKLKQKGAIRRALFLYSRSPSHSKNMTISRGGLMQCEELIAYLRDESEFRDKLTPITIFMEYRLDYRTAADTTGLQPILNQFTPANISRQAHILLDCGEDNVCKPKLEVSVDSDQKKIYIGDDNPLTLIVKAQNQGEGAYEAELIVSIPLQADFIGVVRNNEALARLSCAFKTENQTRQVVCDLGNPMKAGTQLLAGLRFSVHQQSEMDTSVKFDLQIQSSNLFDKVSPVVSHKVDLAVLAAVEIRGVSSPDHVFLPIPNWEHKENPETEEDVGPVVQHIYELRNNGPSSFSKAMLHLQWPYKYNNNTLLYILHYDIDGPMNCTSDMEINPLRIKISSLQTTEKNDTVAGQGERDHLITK
Sequence of αvβ3 integrin (P06756 891-1048 partner limits assumed): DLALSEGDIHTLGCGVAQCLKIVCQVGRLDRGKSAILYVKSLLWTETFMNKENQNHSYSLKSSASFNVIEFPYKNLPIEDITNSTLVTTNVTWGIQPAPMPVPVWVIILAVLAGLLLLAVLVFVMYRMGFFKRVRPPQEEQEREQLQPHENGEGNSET
Sequence of αvβ3 integrin (P05106 27-788): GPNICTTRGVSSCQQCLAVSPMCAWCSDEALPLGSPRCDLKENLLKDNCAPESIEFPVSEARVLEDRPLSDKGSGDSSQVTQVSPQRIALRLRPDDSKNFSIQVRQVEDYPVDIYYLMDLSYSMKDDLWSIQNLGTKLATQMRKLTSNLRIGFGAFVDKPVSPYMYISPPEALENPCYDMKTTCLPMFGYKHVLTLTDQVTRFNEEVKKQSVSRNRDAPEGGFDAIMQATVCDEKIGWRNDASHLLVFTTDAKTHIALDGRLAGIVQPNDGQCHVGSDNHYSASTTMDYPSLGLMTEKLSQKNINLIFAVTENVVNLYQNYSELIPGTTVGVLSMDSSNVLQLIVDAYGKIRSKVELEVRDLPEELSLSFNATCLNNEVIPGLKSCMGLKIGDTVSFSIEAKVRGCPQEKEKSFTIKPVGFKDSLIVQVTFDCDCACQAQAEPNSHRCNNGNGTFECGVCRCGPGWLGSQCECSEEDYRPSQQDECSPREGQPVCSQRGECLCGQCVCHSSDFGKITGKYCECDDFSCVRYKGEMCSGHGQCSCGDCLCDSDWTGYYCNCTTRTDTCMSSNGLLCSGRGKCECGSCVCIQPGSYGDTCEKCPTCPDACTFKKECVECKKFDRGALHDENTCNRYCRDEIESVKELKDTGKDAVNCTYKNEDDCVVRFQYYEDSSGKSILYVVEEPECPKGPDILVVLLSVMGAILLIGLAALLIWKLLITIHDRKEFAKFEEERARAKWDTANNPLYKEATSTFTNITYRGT
This experiment was carried out based on the method described in […].
Purified human αvβ3 integrin (Chemicon International, Inc., USA) was adjusted to a concentration of 1 μg/ml with TBS^++ [20 mM Tris-HCl (pH 7.4), 150 mM NaCl, 1 mM CaCl2, 1 mM MgCl2], and the diluted solution was added to plates (Labsystems, Finland) at 50 μl/well. The plate was left at 4° C. overnight for immobilization of the αvβ3 integrin. All subsequent steps were done at 25° C., and the procedure for each well was described hereafter.
The solution was discarded, and then 200 μl of TBS^++ containing 1% BSA (Wako Pure Chemical Industries, Ltd., Japan) was added to the well and left for one hour for blocking. The well was washed with a wash solution (TBS^++ containing 0.01% Tween 20) 4 times, and 50 μl of a reaction solution (TBS^++ containing 0.1% BSA and 0.01% Tween 20) was added to the well. Subsequently, 25 μl of a test compound solution adjusted to each concentration with the reaction solution was added, and then mixed with 25 μl of biotinylated (Amersham Pharmacia Biotech, UK) human vitronectin (Gibco BRL, USA) adjusted to 0.4 μg/ml with the reaction solution. The mixture was reacted for 2 hours. After washing 4 times with the wash solution, 100 μl of peroxidase-labeled streptoavidin (Amersham Pharmacia Biotech, UK) diluted 1:500 with the reaction solution was added to the well. Following 30 minutes reaction, the well was washed 4 times with the wash solution, and 100 μl of a TMB substrate solution (Bio-Rad Laboratories, USA) was added to the well. Color was developed for 20 minutes and the reaction was stopped by adding 100 μl of 0.5 M sulfuric acid.
The absorbance at 450 nm was measured with a plate reader (Molecular Devices, USA) to obtain a total binding. To obtain a nonspecific binding, EDTA adjusted to 20 mM with the reaction solution was added instead of the test compound solution. A specific binding was calculated by subtracting the nonspecific binding from the total binding.

Each structure is given as a SMILES string. Bounds are passed on as bounds.

T1 sequence (P08514 32-887 limits assumed): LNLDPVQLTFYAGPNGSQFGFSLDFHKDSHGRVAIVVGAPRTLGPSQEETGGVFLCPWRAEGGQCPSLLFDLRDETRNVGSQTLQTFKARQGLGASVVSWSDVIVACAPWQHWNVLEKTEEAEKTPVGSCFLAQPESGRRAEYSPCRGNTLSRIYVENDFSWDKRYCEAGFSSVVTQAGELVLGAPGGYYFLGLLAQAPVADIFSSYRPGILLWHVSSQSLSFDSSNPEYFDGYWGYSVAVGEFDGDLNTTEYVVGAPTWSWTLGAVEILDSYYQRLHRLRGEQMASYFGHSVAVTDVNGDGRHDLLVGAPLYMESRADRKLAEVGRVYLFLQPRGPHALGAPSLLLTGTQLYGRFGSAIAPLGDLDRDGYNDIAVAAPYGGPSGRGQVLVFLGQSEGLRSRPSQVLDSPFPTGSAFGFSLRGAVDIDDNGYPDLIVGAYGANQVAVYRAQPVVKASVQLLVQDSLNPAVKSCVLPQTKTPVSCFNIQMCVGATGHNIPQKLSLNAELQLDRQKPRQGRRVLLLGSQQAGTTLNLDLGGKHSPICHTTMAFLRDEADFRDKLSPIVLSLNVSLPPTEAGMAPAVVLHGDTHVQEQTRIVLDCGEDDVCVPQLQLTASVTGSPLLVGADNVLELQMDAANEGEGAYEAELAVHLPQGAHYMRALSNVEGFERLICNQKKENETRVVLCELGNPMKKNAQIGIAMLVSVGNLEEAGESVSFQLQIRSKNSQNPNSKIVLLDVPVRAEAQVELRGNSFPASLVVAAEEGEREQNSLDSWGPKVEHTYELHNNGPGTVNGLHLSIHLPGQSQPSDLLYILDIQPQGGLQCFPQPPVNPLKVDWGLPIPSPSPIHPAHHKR
T1 sequence (P08514 891-1039 partner limits assumed): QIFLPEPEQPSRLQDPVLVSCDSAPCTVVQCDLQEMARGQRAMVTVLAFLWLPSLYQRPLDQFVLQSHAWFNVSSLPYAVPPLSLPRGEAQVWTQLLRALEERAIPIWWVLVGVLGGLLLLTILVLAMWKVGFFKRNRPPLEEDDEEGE
T1 sequence (P05106 27-788): as the sequence (P05106 27-788) above

One may read the IC50 as the concentration that inhibits the measured activity by half. Low readings indicate greater potency, high ones weaker potency. As to `CC(C)OC(=O)N[C@@H](CNC(=O)C1CCN(c2cccc(NC3=NCCCN3)c2)CC1)C(=O)O` [Ex. 44, (2S)-2-isopropoxycarbonylamino-3-[[1-[3-(1,4,5,6-tetrahydropyrimidin-2-yl)aminophenyl]piperidin-4-yl]carbonylamino]-propanoic acid], the IC50 in assay [1] was determined as 800 nM; in assay [2] it was 0.11 nM.
The corresponding values for `CCOC(=O)N[C@@H](CNC(=O)C1CCN(c2cccc(NC3=NCCCN3)c2)CC1)C(=O)O` [Ex. 86, (2S)-2-ethoxycarbonylamino-3-[[1-[3-(1,4,5,6-tetrahydropyrimidin-2-yl)aminophenyl]piperidin-4-yl]carbonylamino]propanoic acid] are 380 nM and 0.094 nM.
Consider `CCCCOC(=O)N[C@@H](CNC(=O)C1CCN(c2cccc(NC3=NCCCN3)c2)CC1)C(=O)O` [Ex. 87, (2S)-2-butoxycarbonylamino-3-[[1-[3-(1,4,5,6-tetrahydropyrimidin-2-yl)aminophenyl]piperidin-4-yl]carbonylamino]propanoic acid], for which the IC50 in assay [1] was found to be 110 nM; in assay [2], 0.1 nM.
Regarding `CCCCCCOC(=O)N[C@@H](CNC(=O)C1CCN(c2cccc(NC3=NCCCN3)c2)CC1)C(=O)O` [Ex. 88, (2S)-2-hexyloxycarbonylamino-3-[[1-[3-(1,4,5,6-tetrahydropyrimidin-2-yl)aminophenyl]piperidin-4-yl]carbonylamino]propanoic acid], the IC50 in assay [1] was 26 nM; in assay [2] it was 0.051 nM.
Take `CCCCCCCCOC(=O)N[C@@H](CNC(=O)C1CCN(c2cccc(NC3=NCCCN3)c2)CC1)C(=O)O` [Ex. 89, (2S)-2-octyloxycarbonylamino-3-[[1-[3-(1,4,5,6-tetrahydropyrimidin-2-yl)aminophenyl]piperidin-4-yl]carbonylamino]propanoic acid]: the IC50 in assay [1] came to 96 nM; in assay [2], 0.1 nM.
On the same counts, the results for `CCCCCCCCCCOC(=O)N[C@@H](CNC(=O)C1CCN(c2cccc(NC3=NCCCN3)c2)CC1)C(=O)O` [Ex. 90, (2S)-2-decyloxycarbonylamino-3-[[1-[3-(1,4,5,6-tetrahydropyrimidin-2-yl)aminophenyl]piperidin-4-yl]carbonylamino]propanoic acid] are 260 nM and 0.23 nM.
On to `CC(C)COC(=O)N[C@@H](CNC(=O)C1CCN(c2cccc(NC3=NCCCN3)c2)CC1)C(=O)O` [Ex. 92, (2S)-2-isobutoxycarbonylamino-3-[[1-[3-(1,4,5,6-tetrahydropyrimidin-2-yl)aminophenyl]piperidin-4-yl]carbonylamino]propanoic acid], for which the IC50 in assay [1] came out at 72 nM; in assay [2] it was 0.066 nM.
On to `CC(C)(C)COC(=O)N[C@@H](CNC(=O)C1CCN(c2cccc(NC3=NCCCN3)c2)CC1)C(=O)O` [Ex. 93, (2S)-2-neopentyloxycarbonylamino-3-[[1-[3-(1,4,5,6-tetrahydropyrimidin-2-yl)aminophenyl]piperidin-4-yl]carbonylamino]propanoic acid], for which the IC50 amounted to 150 nM in assay [1] and 0.2 nM in assay [2].
On to `COCCOC(=O)N[C@@H](CNC(=O)C1CCN(c2cccc(NC3=NCCCN3)c2)CC1)C(=O)O` [Ex. 94, (2S)-2-(2-methoxyethoxycarbonylamino)-3-[[1-[3-(1,4,5,6-tetrahydropyrimidin-2-yl)aminophenyl]piperidin-4-yl]carbonylamino]-propanoic acid], for which the IC50 in assay [1] was found to be 60 nM; in assay [2] it was 0.21 nM.
As to `C=CCOC(=O)N[C@@H](CNC(=O)C1CCN(c2cccc(NC3=NCCCN3)c2)CC1)C(=O)O` [Ex. 96, (2S)-2-allyloxycarbonylamino-3-[[1-[3-(1,4,5,6-tetrahydropyrimidin-2-yl)aminophenyl]piperidin-4-yl]carbonylamino] propanoic acid], the IC50 came to 60 nM in assay [1] and 0.08 nM in assay [2].
In the case of `CCCCCCNC(=O)N[C@@H](CNC(=O)C1CCN(c2cccc(NC3=NCCCN3)c2)CC1)C(=O)O` [Ex. 117, (2S)-2-hexylaminocarbonylamino-3-[[1-[3-(1,4,5,6-tetrahydropyrimidin-2-yl)aminophenyl]piperidin-4-yl]carbonylamino]propanoic acid], the figures for the IC50 in assay [1] and in assay [2] were 88 nM and 0.35 nM, respectively.
The corresponding values for `O=C(N[C@@H](CCC(=O)N1CCN(c2cccc(NC3=NCCN3)c2)CC1)C(=O)O)OCc1ccccc1` [Ex. 122] are 720 nM and 0.16 nM.
The corresponding values for `O=C(N[C@@H](CCC(=O)N1CCN(c2cccc(NC3=NCCCCN3)c2)CC1)C(=O)O)OCc1ccccc1` [Ex. 123] are 1600 nM and 0.056 nM.
Take `O=C(N[C@@H](CCC(=O)N1CCN(c2cccc(NC3=NCC(F)CN3)c2)CC1)C(=O)O)OCc1ccccc1` (stereo partly drawn) [Ex. 124, (2S)-2-benzyloxycarbonylamino-5-[4-[3-(5-fluoro-1,4,5,6-tetrahydropyrimidin-2-yl)aminophenyl]piperazin-1-yl]-5-oxopentanoic acid]: the IC50 in assay [1] amounted to 540 nM; in assay [2] it was 0.063 nM.
As to `O=C(N[C@@H](CCC(=O)N1CCN(c2cccc(NC3=NCC(O)CN3)c2)CC1)C(=O)O)OCc1ccccc1` (stereo partly shown) [Ex. 125], the IC50 in assay [1] amounted to 340 nM; in assay [2], 0.15 nM.
On the same counts, the results for `CCCCCCOC(=O)N[C@@H](CCC(=O)N1CCN(c2cccc(NC3=NCC(F)CN3)c2)CC1)C(=O)O` (stereo partly drawn) [Ex. 130, (2S)-2-hexyloxycarbonylamino-5-[4-[3-(5-fluoro-1,4,5,6-tetrahydropyrimidin-2-yl)aminophenyl]piperazin-1-yl]-5-oxopentanoic acid] are more than 1000 nM and 0.058 nM.
On the same counts, the results for `CCCCCCOC(=O)N[C@@H](CCC(=O)N1CCN(c2cccc(NC3=NCC(O)CN3)c2)CC1)C(=O)O` (stereo partly shown) [Ex. 131] are 57 nM and 0.3 nM.
Take `CCCCCCCCCCOC(=O)N[C@@H](CCC(=O)N1CCN(c2cccc(NC3=NCC(C)(C)CN3)c2)CC1)C(=O)O` [Ex. 132]: the IC50 was more than 1000 nM in assay [1] and 1.7 nM in assay [2].
For `CCCCCCCCCCOC(=O)N[C@@H](CCC(=O)N1CCN(c2cccc(NC3=NCC(F)CN3)c2)CC1)C(=O)O` (stereo partly shown) [Ex. 133], the figures for the IC50 in assay [1] and in assay [2] were more than 1000 nM and 0.26 nM, respectively.
Take `CCCCCCCCCCOC(=O)N[C@@H](CCC(=O)N1CCN(c2cccc(NC3=NCC(O)CN3)c2)CC1)C(=O)O` (stereo partly shown) [Ex. 134]: the IC50 in assay [1] is more than 1000 nM; in assay [2], 0.64 nM.
